Data as given in patent US20040152751A1, “Pyrazolidinol compounds” (priority 1999, published 2004).

Legend:
HIV-1 [1] = experiment: Antiviral activity: HIV antigen concentration in HIV-1 infected MT4 cells; assay type: cell-based; conditions: MT4 cells (human CD4 cell line), 1, 10 and 100 μM, after 72 hours; FIG. 1
Protocol: (§1) 40H—OPB was added to cultures of growing MT4 cells (a human CD4 cell line). HIV-1, stored in the culture medium at −75° C. was thawed and added in an amount which infected about 1 in 7 cells in each culture. The virus was absorbed to the cells for 2.3 hours at ambient temperature whereafter the cultures were centrifuged at 1200 rpm, the medium was removed, the cells were suspended in fresh growth medium and 40H—OPB was added to concentrations of 1, 10 and 100 μM (diluted in medium from a stock solution of 20 mM in DMSO). After 72 hours the HIV antigen concentration was determined using Abbott's test. By way of comparison phenbutazone (PB) was tested analogously.

HIV-1 [2] = experiment: Combination antiviral effect in HIV-1 infected MT4 cells; assay type: cell-based; conditions: with AZT, Indinavir, Nevirapin or ddI, FIGS. 2-5
Protocol: as §1
Cell culture experiments were carried out as in Example 12, but in place of 40H—OPB (0-100 μM) was added:
i) 40H—OPB ([…]) with AZT (0-1 μM)
iii) 40H—OPB (0-100 μM) with Nevirapin (0-10 μM)

mice = experiment: Mouse toxicity; assay type: in vivo
Protocol: 20 g mice were given single doses of 40H—OPB (20 mM in DMSO) intraperitoneally. […] Furthermore, injection of 40H—OPB could be increased to 2000 mg/kg (corresponding to 20 mM in the extracellular fluid) before the mice started to die (6 out of 10 died at 2000 mg/kg).

CCCCC1(O)C(=O)N(c2ccccc2)N(c2ccc(O)cc2)C1=O (stereo not drawn) [40H—OPB, 4-(1-Butyl)-4-hydroxy-1-(4-hydroxyphenyl)-2-phenyl-3,5-pyrazolidinedione]
inhibition of virus production (HIV antigen concentration, Abbott's test) (HIV-1 [1]): inhibition of virus production by 40H—OPB at concentrations above the lowest tested | anti-HIV effect in combination with other anti-viral agents (HIV-1 [2]): enhanced anti-HIV effect | lethal dose expressed as concentration in the extracellular fluid (mice; mice, corresponding to 2000 mg/kg): 20 mM | dose reached before the mice started to die (lethal dose) (mice; mice, single dose intraperitoneally): 2000 mg/kg | factor by which concentrations that effectively inhibit HIV replication in cell cultures are lower than the lethal dose in mice (mice; mouse, in vivo, 2000 mg/kg): up to 200000 times | mice that died (mice; mouse, in vivo, ip, 2000 mg/kg): 6 out of 10
